Measured values reported in US20250339399A1, “SUPRAMOLECULAR SELF-ASSEMBLY SYSTEM” (Beijing Creatron Institute of Pharmaceutical Research Co., …, priority 2022, published 2025).
Counter-ions that a name gives are not always drawn.

Assays:
[1] = Guest molecule concentration after incubation in initial medium without polymer (Comparative Example 1); type: physicochemical; conditions: for Concentration of guest molecule measured after different incubated time: 37° C.
Experimental: (§1) pH 2.0 hydrochloric acid, pH 4.5 acetate, and pH 6.5, pH 6.8, or pH 7.4 phosphate buffer solutions were prepared. The selection of each initial medium followed the principle that the solubility in the initial medium of the selected targets (or active ingredients) should low enough, but should meet the detection sensitivity and accuracy requirements of the corresponding analytical methods. Each buffer as initial media was placed in a 50 ml test tube with a stopper, shaken in a constant temperature air shaker at 37° C.±0.5° C., with an amplitude of 200 rpm, and incubated for 1 hour. […] Samples were taken at 0.5 h, 3 h and 6 h after incubation, centrifuged at 37° C., 13000 rpm for 5 minutes, and the supernatant was diluted at least 10 times with the mobile phase under the target analyte analytical method, filtered, the initial filtrate was discarded, and the continued filtrate was used as the test solution for injection analysis. The corresponding HPLC method under each target object item in Table 8 was used to determine the content of each target substance. When the solubility of the target in the initial medium is below the quantitative limit of the analytical method, a small amount of surfactant, such as sodium dodecyl sulfate (SDS), Tween20, or Tween80, can be added appropriately.
The above targets were incubated at 37° C.±0.5° C. for different time in an initial medium without any polymer. Each solid target formed by molecular stacking was removed by centrifugation, and the supernatant was analyzed using the HPLC method under each target item (see Table 8). The theoretical addition concentration of each target when its supramolecular self-assembly system was built was determined by its maximum dose in clinical use.

[2] = Binary supramolecular self-assembly systems of polymer and target: guest concentration over incubation time (Comparative Example 2); type: physicochemical; conditions: for Concentration of guest molecule in solution / Times that of the initial medium: 6 h
Experimental: Experiments were conducted according to the steps in Comparative Example 1, and quantitative analysis was carried out using the analytical method for each target to investigate the regulation ability […] stacking.

[3] = Binary (carrier), ternary and quaternary supramolecular self-assembly systems of polymer, carrier building block and target: guest concentration over incubation time (Examples 1-56); type: physicochemical; conditions: 6 h
Experimental: as §1
Experiments were conducted according to the steps in Comparative Example 1, and quantitative analysis was carried out using the analytical method for each target to investigate the regulation ability of each binary supramolecular self-assembly system built from 0.5% polymer and target on guest molecules stacking.
Ternary supramolecular self-assembly systems based on different polymers, carrier building blocks, and targets were built according to the experimental scheme in Table 12, to investigate the influence of synergistic regulation of the carrier building blocks and the polymers on the stacking of target molecules, as well as the stability of the supramolecular self-assembly systems jointly built by them over incubation time. The initial medium, quantitative analysis method, pre-treatment method, and initial theoretical concentration of the target, corresponding to each target molecule in the experiment, were consistent with those in Comparative Examples 1 and 2. After a target was added to the system, the target was uniformly dispersed by ultrasonication at 37° C. for half an hour and then shaken in a 37° C. constant temperature air shaker, and samples were collected after different incubation time, i.e. 0.5 h, 1 h, 2 h, 3 h, 4 h, and 6 h.

[4] = Cannabidiol derivatives, Table 30 (chemical structures); cited from earlier work
[5] = binary system with 0.5% polymer 102, incubation 0.5 h
[6] = binary system with 0.5% polymer 102, incubation 3 h
[7] = binary system with 0.5% polymer 102, incubation 6 h
[8] = ternary: 0.25% 102M + 0.25% 301
[9] = ternary: 0.25% 102M + 0.25% 302

SMILES: O=C1[C@@H]2[C@H]3CC[C@H](C3)[C@@H]2C(=O)N1C[C@@H]1CCCC[C@H]1CN1CCN(c2nsc3ccccc23)CC1 [Lurasidone hydrochloride]
- Concentration of guest molecule measured after different incubated time ([1]; 0.5 h, pH 6.8 phosphate buffer): 7300 ng/mL
- Concentration of guest molecule measured after different incubated time ([1]; 3 h, pH 6.8 phosphate buffer): 10700 ng/mL
- Concentration of guest molecule measured after different incubated time ([1]; 6 h, pH 6.8 phosphate buffer): 3200 ng/mL
- Concentration of guest molecule in solution ([2]; binary: 0.25% 101): 32400 ng/mL
- Concentration of guest molecule in solution ([2]; binary: 0.25% 102H): 84400 ng/mL
- Concentration of guest molecule in solution ([3]; binary: 0.25% 312): 71500 ng/mL
- Concentration of guest molecule in solution ([3]; binary: 0.25% 314): 56600 ng/mL
- Times that of the initial medium ([3]; binary: 0.25% 314): 81 times
- Concentration of guest molecule in solution ([3]; binary: 0.5% 314): 198800 ng/mL
- Times that of the initial medium ([3]; binary: 0.5% 314): 284 times
- Concentration of guest molecule in solution ([3]; binary: 0.5% 319): 2300 ng/mL
- Concentration of guest molecule in solution ([3]; ternary: 0.25% 102H + 312, carrier % not stated): 122100 ng/mL
- Concentration of guest molecule in solution ([3]; ternary: 0.25% 319 + 0.25% 101): 11200 ng/mL
- Concentration of guest molecule in solution ([3]; ternary: 102H + 310, carrier % not stated): 204900 ng/mL
- Concentration of guest molecule in solution ([3]; ternary: 102H + 313, carrier % not given): 135700 ng/mL
- Concentration of guest molecule in solution ([3]; ternary: 102H + 318, carrier % not stated): 141800 ng/mL

SMILES: CCCCCCC(C)(C)c1cc(OC)c([C@H]2C=C(CO)[C@H]3C[C@@H]2C3(C)C)c(OC)c1 [compound 30]
- Log P [4]: Log P = 6.39 H-D:1,H-R = 3

SMILES: C=C(C)[C@@H]1CCC(C)=C[C@H]1c1c(O)cc(CCCCC)cc1OCC(=O)O [compound 50]
- Log P [4]: Log P = 5.95 H-D:2,H-R = 4

SMILES: C=C(C)[C@@H]1CCC(C)=C[C@H]1c1c(C)cc(O)cc1O [compound 62, (5-methyl-4-[(1R,6R)-3-methyl-6-prop-1-en-2-ylcyclohex-2-en-1-yl]benzene-1,3-diol)]
- Log P [4]: Log P = 4.55 H-D:2,H-R = 2

SMILES: CCCSc1nc(N[C@@H]2C[C@H]2c2ccc(F)c(F)c2)c2nnn([C@@H]3C[C@H](OCCO)[C@@H](O)[C@H]3O)c2n1 [Ticagrelor]
- Concentration of guest molecule measured after different incubated time ([1]; 0.5 h, 0.05% SDS in pH 6.8 phosphate buffer): 11700 ng/mL
- Concentration of guest molecule measured after different incubated time ([1]; 3 h, 0.05% SDS in pH 6.8 phosphate buffer): 11900 ng/mL
- Concentration of guest molecule measured after different incubated time ([1]; 6 h, 0.05% SDS in pH 6.8 phosphate buffer): 7800 ng/mL
- Concentration of guest molecule in solution ([1]; initial medium, 6 h): 18400 ng/mL
- Concentration of the target in the solution measured after different incubation time ([2]; binary system with 0.5% polymer 101, incubation 0.5 h): 132500 ng/mL
- Concentration of the target in the solution measured after different incubation time ([2]; binary system with 0.5% polymer 101, incubation 3 h): 47200 ng/mL
- Concentration of the target in the solution measured after different incubation time ([2]; binary system with 0.5% polymer 101, incubation 6 h): 46600 ng/mL
- Concentration of the target in the solution measured after different incubation time [2, 5]: 169800 ng/mL
- Concentration of the target in the solution measured after different incubation time [2, 6]: 166000 ng/mL
- Concentration of the target in the solution measured after different incubation time [2, 7]: 161400 ng/mL
- Concentration of the target in the solution measured after different incubation time ([2]; binary system with 0.5% polymer 103, incubation 0.5 h): 19200 ng/mL
- Concentration of the target in the solution measured after different incubation time ([2]; binary system with 0.5% polymer 103, incubation 3 h): 20400 ng/mL
- Concentration of the target in the solution measured after different incubation time ([2]; binary system with 0.5% polymer 103, incubation 6 h): 17500 ng/mL
- Concentration of the target in the solution measured after different incubation time ([2]; binary system with 0.5% polymer 104, incubation 0.5 h): 11900 ng/mL
- Concentration of the target in the solution measured after different incubation time ([2]; binary system with 0.5% polymer 104, incubation 3 h): 9400 ng/mL
- Concentration of the target in the solution measured after different incubation time ([2]; binary system with 0.5% polymer 104, incubation 6 h): 9100 ng/mL
- Concentration of the target in the solution measured after different incubation time ([2]; binary system with 0.5% polymer 106, incubation 0.5 h): 16800 ng/mL
- Concentration of the target in the solution measured after different incubation time ([2]; binary system with 0.5% polymer 106, incubation 3 h): 17400 ng/mL
- Concentration of the target in the solution measured after different incubation time ([2]; binary system with 0.5% polymer 106, incubation 6 h): 17300 ng/mL
- Concentration of the target in the solution measured after different incubation time ([2]; binary system with 0.5% polymer 107, incubation 0.5 h): 48300 ng/mL
- Concentration of the target in the solution measured after different incubation time ([2]; binary system with 0.5% polymer 107, incubation 3 h): 52100 ng/mL
- Concentration of the target in the solution measured after different incubation time ([2]; binary system with 0.5% polymer 107, incubation 6 h): 45500 ng/mL
- Concentration of the target in the solution measured after different incubation time ([2]; binary system with 0.5% polymer 110, incubation 0.5 h): 17000 ng/mL
- Concentration of the target in the solution measured after different incubation time ([2]; binary system with 0.5% polymer 110, incubation 3 h): 19200 ng/mL
- Concentration of the target in the solution measured after different incubation time ([2]; binary system with 0.5% polymer 110, incubation 6 h): 19100 ng/mL
- Concentration of guest molecule in solution ([2]; binary: 0.25% 102H): 260200 ng/mL
- Times that of the initial medium ([2]; binary: 0.25% 102H): approximately 14 times
- Times that of the initial medium ([2]; binary: 0.25% 102M): about 6 times
- Concentration of guest molecule in solution [3, 8]: 290800 ng/mL
- Times that of the initial medium [3, 8]: 26 times
- Concentration of guest molecule in solution [3, 9]: 107200 ng/mL
- Times that of the initial medium [3, 9]: 9.7 times
- Concentration of guest molecule in solution ([3]; ternary: 0.25% 102M + 0.5% 301): 394000 ng/mL
- Times that of the initial medium ([3]; ternary: 0.25% 102M + 0.5% 301): 35 times
- Times that of the initial medium ([3]; ternary: 102M + 310, 312 or 313): 29 times
- Concentration of guest molecule in solution ([3]; ternary: 102M + 318): 253700 ng/mL

SMILES: C=C(C)[C@@H]1CCC(C)=C[C@H]1c1ccc(CCCCC)cc1O [compound 48, ((1′R,2′R)-5′-methyl-4-pentyl-2′-(prop-1-en-2-yl)-1′,2′,3′,4′-tetrahydro-[1,1′-biphenyl]-2-ol)]
- Log P [4]: Log P = 6.63 H-D:1, H-R = 1

SMILES: CC1=C[C@H](O)CC(C)(C)[C@H]1/C=C/C(C)=C/C=C/C(C)=C/C=C/C=C(C)/C=C/C=C(C)/C=C/C1=C(C)C[C@@H](O)CC1(C)C [Lutein, lutein]
- Concentration of guest molecule measured after different incubated time ([1]; 0.5 h, pH 6.8 phosphate buffer): 0 ng/mL
- Concentration of guest molecule measured after different incubated time ([1]; 3 h, pH 6.8 phosphate buffer): 0 ng/mL
- Concentration of guest molecule measured after different incubated time ([1]; 6 h, pH 6.8 phosphate buffer): 0 ng/mL
- Concentration of the target in the solution measured after different incubation time [2, 5]: 16300 ng/mL
- Concentration of the target in the solution measured after different incubation time [2, 6]: 16900 ng/mL
- Concentration of the target in the solution measured after different incubation time [2, 7]: 16000 ng/mL
